Tests used:
h-GABA-A α2β2γ1 = h-GABA-A α2β2γ1 (Homo sapiens (Human), UniProt P47869+Q8N1C3); experiment: Two-electrode voltage clamp electrophysiology in Xenopus oocytes expressing GABAA receptors; assay type: cell-based; details: for Efficacy (GABA) %: % modulation of GABA EC20 = 100*(Fold increase−1), compound at about 30-fold its Ki α2β2γ1; for Fold increase h-GABA-A α2β2γ1 oocyte @ 30-fold Ki: Xenopus oocytes, GABA EC20, compound at about 30-fold its Ki α2β2γ1
Protocol: Xenopus Oocytes Preparation Xenopus laevis oocytes at maturation stages V-VI were used for the expression of cloned mRNA encoding GABAA receptor subunits. Oocytes ready for RNA micro-injection were bought from Ecocyte, Castrop-Rauxel, Germany and stored in modified Barth's medium (composition in mM: NaCl 88, KCl 1, NaHCO3 2.4, HEPES 10, MgSO4 0.82, CaNO3 0.33, CaCl2 0.33, pH=7.5) at 20° C. until the experiment.
Oocytes were plated in 96-well plates for microinjection using the Roboinject automated instrument (MultiChannelSystems, Reutlingen, Germany). Approximately 50 nL of an aqueous solution containing the RNA transcripts for the subunits of the desired GABAA receptor subtype was injected into each oocyte. […] Oocytes were kept in modified Barth's medium (composition in mM: NaCl 88, KCl 1, NaHCO3 […], HEPES 10, MgSO4 0.82, CaNO3 0.33, CaCl2 0.33, pH=7.5) at 20° C. until the experiment.
Electrophysiological experiments were performed using the Roboocyte instrument (MultiChannelSystems, Reutlingen, Germany) on days 3 to 5 after the micro-injection of mRNA. During the experiment the oocytes were constantly superfused by a solution containing (in mM) NaCl 90, KCl 1, HEPES 5, MgCl2 1, CaCl2 1 (pH 7.4). Oocytes were impaled by two glass microelectrodes (resistance: 0.5-0.8 MQ) which were filled with a solution containing KCl 1M+K-acetate 1.5 M and voltage-clamped to −80 mV. The recordings were performed at room temperature using the Roboocyte two-electrode voltage clamp system (Multichannelsystem). After an initial equilibration period of 1.5 min GABA was added for 1.5 min at a concentration evoking approximately 20% of a maximal current response (EC20). After another rest interval of 2.5 min GABA was again added evoking a response of similar amplitude and shape. […] Current traces were recorded at a digitization rate of 10 Hz during and shortly before and after the GABA application.
Each compound and concentration was tested on at least 3 oocytes. Different oocytes were used for different compound concentrations.
For the analysis, the digitized current traces of the first and second GABA response were superimposed and, if necessary, rescaled to equal maximal amplitudes. The ratio between the two responses during the time interval of test compound application was calculated point by point. The extremum of the resulting “ratio trace” was taken as the efficacy (“Fold increase”) of the compound expressed as “% modulation of GABA EC20” (100*(Fold increase−1)).

[1] = biological target: human GABAA α5β2γ1 receptor (Homo sapiens (Human), UniProt P31644+Q8N1C3); experiment: Radioligand binding assay, competition for [3H]RO7239181, γ1-containing GABAA subtypes

| Compound | Efficacy (GABA) % (h-GABA-A α2β2γ1) | Fold increase h-GABA-A α2β2γ1 oocyte @ 30-fold Ki (h-GABA-A α2β2γ1) | Ki [1] |
| --- | --- | --- | --- |
| Cc1nc2n(n1)-c1sc3c(c1C(c1c(F)cccc1F)=N[C@H]2C)COCCO3 [Example 28, (7S)-9-(2,6-difluorophenyl)-4,7-dimethyl-13,16-dioxa-18-thia-2,3,5,8-tetrazatetracyclo[8.8.0.02,6.011,17]octadeca-1(10),3,5,8,11(17)-pentaene] | 40% | 1.40 | 0.89 nM |
| Cc1nnc2n1-c1sc3c(c1C(c1c(F)cccc1F)=N[C@H]2C)CC[C@H](F)CC3 (single isomer, unassigned) [Example 14] | 181% | 2.81 | 4.87 nM |
| Cc1nnc2n1-c1sc3c(c1C(c1c(F)cccc1F)=N[C@H]2C)COCCO3 [Example 21, (7S)-9-(2,6-difluorophenyl)-3,7-dimethyl-13,16-dioxa-18-thia-2,4,5,8-tetrazatetracyclo[8.8.0.02,6.011,17]octadeca-1(10),3,5,8,11(17)-pentaene] | 140% | 2.40 | 2.33 nM |
| Cc1nc2n(n1)-c1sc3c(c1C(c1c(F)cccc1F)=N[C@H]2C)COCCC3 [Example 57, (7S)-9-(2,6-difluorophenyl)-4,7-dimethyl-13-oxa-18-thia-2,3,5,8-tetrazatetracyclo[8.8.0.02,6.011,17]octadeca-1(10),3,5,8,11(17)-pentaene] | 73% | 1.73 | 1.53 nM |
| C[C@@H]1N=C(c2c(F)cccc2F)c2c(sc3c2COCCO3)-n2c(C(F)F)nnc21 [Example 48, (7S)-3-(difluoromethyl)-9-(2,6-difluorophenyl)-7-methyl-13,16-dioxa-18-thia-2,4,5,8-tetrazatetracyclo[8.8.0.02,6.011,17]octadeca-1(10),3,5,8,11(17)-pentaene] | 144% | 2.44 | 13.5 nM |
| C[C@@H]1N=C(c2c(F)cccc2F)c2c(sc3c2COCCC3)-n2cc(C(=O)NCC3(O)CC3)nc21 [Example 68, (7S)-9-(2,6-difluorophenyl)-N-[(1-hydroxycyclopropyl)methyl]-7-methyl-13-oxa-18-thia-2,5,8-triazatetracyclo[8.8.0.02,6.011,17]octadeca-1(10),3,5,8,11(17)-pentaene-4-carboxamide] | 159% | 2.59 | 2.95 nM |
| Cc1nnc2n1-c1sc3c(c1C(c1c(F)cccc1F)=NC2)CCCCO3 [Example 18, 9-(2,6-difluorophenyl)-3-methyl-16-oxa-18-thia-2,4,5,8-tetrazatetracyclo[8.8.0.02,6.011,17]octadeca-1(10),3,5,8,11(17)-pentaene] | 113% | 2.13 | 1.84 nM |
| C[C@@H]1N=C(c2c(F)cccc2F)c2c(sc3c2COCCC3)-n2nc(C(=O)NC[C@@](C)(O)C(F)(F)F)nc21 [Example 70, (7S)-9-(2,6-difluorophenyl)-7-methyl-N-[(2R)-3,3,3-trifluoro-2-hydroxy-2-methyl-propyl]-13-oxa-18-thia-2,3,5,8-tetrazatetracyclo[8.8.0.02,6.011,17]octadeca-1(10),3,5,8,11(17)-pentaene-4-carboxamide] | 148% | 2.48 | 5.8 nM |
| Cc1nnc2n1-c1sc3c(c1C(c1c(F)cccc1F)=NC2)CCCCC3 [Example 1, 9-(2,6-difluorophenyl)-3-methyl-18-thia-2,4,5,8-tetrazatetracyclo[8.8.0.02,6.011,17]octadeca-1(10),3,5,8,11(17)-pentaene] | 64% | 1.64 | 1.4 nM |
| Cc1nnc2n1-c1sc3c(c1C(c1c(F)cccc1F)=N[C@H]2C)OCCCC3 [Example 33, (7S)-9-(2,6-difluorophenyl)-3,7-dimethyl-12-oxa-18-thia-2,4,5,8-tetrazatetracyclo[8.8.0.02,6.011,17]octadeca-1(10),3,5,8,11(17)-pentaene] | 76% | 1.76 | 21.8 nM |
| C[C@@H]1N=C(c2c(F)cccc2F)c2c(sc3c2COCCO3)-n2nc(C(=O)NCCF)nc21 [Example 25, (7S)-9-(2,6-difluorophenyl)-N-(2-fluoroethyl)-7-methyl-13,16-dioxa-18-thia-2,3,5,8-tetrazatetracyclo[8.8.0.02,6.011,17]octadeca-1(10),3,5,8,11(17)-pentaene-4-carboxamide] | 99% | 1.99 | 2.1 nM |
| Cc1cn2c(nc1=O)[C@H](C)N=C(c1c(F)cccc1F)c1c-2sc2c1CCCCC2 [Example 26, (8S)-10-(2,6-difluorophenyl)-4,8-dimethyl-19-thia-2,6,9-triazatetracyclo[9.8.0.02,7.012,18]nonadeca-1(11),3,6,9,12(18)-pentaen-5-one] | 109% | 2.09 | 3.78 nM |
| Cc1nnc2n1-c1sc3c(c1C(c1c(F)cccc1F)=N[C@H]2C)CCCC(O)C3 (mixture of isomers) [Example 13, (7S,15RS)-9-(2,6-difluorophenyl)-3,7-dimethyl-18-thia-2,4,5,8-tetrazatetracyclo[8.8.0.02,6.011,17]octadeca-1(10),3,5,8,11(17)-pentaen-15-ol] | 80% | 1.80 | 5.67 nM |
| Cc1nnc2n1-c1sc3c(c1C(c1c(F)cccc1F)=N[C@H]2C)CC[C@@H](F)CO3 [Example 56, (7S,14R)-9-(2,6-difluorophenyl)-14-fluoro-3,7-dimethyl-16-oxa-18-thia-2,4,5,8-tetrazatetracyclo[8.8.0.02,6.011,17]octadeca-1(10),3,5,8,11(17)-pentaene] | 147% | 2.47 | 6.9 nM |
| C[C@@H]1N=C(c2c(F)cccc2F)c2c(sc3c2COCCO3)-n2nc(C(=O)N3CC(OC(C)(C)C)C3)nc21 [Example 29, (3-tert-butoxyazetidin-1-yl)-[(7S)-9-(2,6-difluorophenyl)-7-methyl-13,16-dioxa-18-thia-2,3,5,8-tetrazatetracyclo[8.8.0.02,6.011,17]octadeca-1(10),3,5,8,11(17)-pentaen-4-yl]methanone] | 79% | 1.79 | 1.82 nM |
| Cc1nnc2n1-c1sc3c(c1C(c1c(F)cccc1F)=N[C@H]2C)CC[C@@H](O)CC3 [Example 27, (7S,14R)-9-(2,6-difluorophenyl)-3,7-dimethyl-18-thia-2,4,5,8-tetrazatetracyclo[8.8.0.02,6.011,17]octadeca-1(10),3,5,8,11(17)-pentaen-14-ol] | 77% | 1.77 | 10.9 nM |
| Cc1nnc2n1-c1sc3c(c1C(c1c(F)cccc1F)=N[C@H]2C)CCCCC3 [Example 2, (7S)-9-(2,6-difluorophenyl)-3,7-dimethyl-18-thia-2,4,5,8-tetrazatetracyclo[8.8.0.02,6.011,17]octadeca-1(10),3,5,8,11(17)-pentaene] | 66% | 1.66 | 1.7 nM |
| Cc1nnc2n1-c1sc3c(c1C(c1c(F)cccc1Cl)=N[C@H]2C)COCCO3 [Example 35, (7S)-9-(2-chloro-6-fluoro-phenyl)-3,7-dimethyl-13,16-dioxa-18-thia-2,4,5,8-tetrazatetracyclo[8.8.0.02,6.011,17]octadeca-1(10),3,5,8,11(17)-pentaene] | 61% | 1.61 | 5.21 nM |
| Cc1nnc2n1-c1sc3c(c1C(c1c(F)cccc1F)=N[C@H]2C)CCCC[C@H]3F (single isomer, unassigned) [Example 11] | 88% | 1.88 | 2.7 nM |
